From patent US20100331348A1, “TROPANE DERIVATIVES USEFUL AS PESTICIDES” (SYNGENTA CROP PROTECTION, INC., priority 2007, published 2010)
Read-outs that look alike come from different tables or passages of the source.

What was measured:
[1] = test system: Puccinia recondita f.sp. tritici; assay: Puccinia recondita f.sp. tritici (wheat brown rust) leaf disk assay; format: in vivo; settings: foliar, 216 h, preventive, nine days after inoculation, read-out: control of fungal infection, Puccinia recondita f.sp. tritici
Aedes aegypti = Aedes aegypti (Yellow fever mosquito) larvae test; format: in vivo; settings: 48 h
Phytophthora infestans = assay: whole plant or invertebrate; format: in vivo; settings: foliar, 96 h, read-out: control of fungal infection, Phytophthora infestans
Plasmopara viticola = Plasmopara viticola (downy mildew of grapevine) leaf disk assay; format: in vivo; settings: foliar, 168 h, preventive, seven days after inoculation, read-out: control of fungal infection, Plasmopara viticola
[2] = test system: Erysiphe graminis f.sp. tritici; assay: Erysiphe graminis f.sp. tritici (wheat powdery mildew) leaf disk assay; format: in vivo; settings: Blumeria graminis, foliar, 96 h, preventive, four days after inoculation, read-out: control of fungal infection, Erysiphe graminis fsp. tritici
Pyricularia oryzae = assay: whole plant or invertebrate; format: in vivo; settings: foliar, 96 h
Plutella xylostella = Plutella xylostella (Diamond back moth) artificial diet test; settings: 120 h, read-out: control of Plutella xylostella
[3] = read-out: control of fungal infection, Pyricularia oryzae (at least 60% list)
[4] = read-out: control of fungal infection, Pyricularia oryzae (at least 80% list)

Compound `FC(F)(F)c1ccnc(OC2C[C@H]3CC[C@@H](C2)N3c2ncnc3ccsc23)c1` (stereo partly drawn) has a melting point of 211 °C.
Compound `Clc1ccc(-c2nc(CON=C3CC4CCC(C3)N4c3ncnc4sccc34)cs2)cc1` [Example 5.255] has a pest or weed control at 200 ppm [1] of at least 80%, a pest or weed control at 2 ppm (Aedes aegypti) of at least 80% and a pest or weed control at 200 ppm (Phytophthora infestans) of at least 80%. It also gave a pest or weed control at 200 ppm (Plasmopara viticola) of at least 80% and a pest or weed control at 200 ppm [2] of at least 80%.
In the case of `Cc1cccc(CON=C2CC3CCC(C2)N3c2ncnc3sccc23)c1` [Example 5.157], the pest or weed control at 200 ppm (Pyricularia oryzae; [3]) is reported as at least 60%, the pest or weed control at 200 ppm [1] is reported as at least 80% and the pest or weed control at 200 ppm (Phytophthora infestans) is reported as at least 80%. The pest or weed control at 200 ppm (Plasmopara viticola) was at least 80% and the pest or weed control at 200 ppm [2] was at least 80%.
With `Cn1cc(C(=O)N2[C@@H]3CC[C@H]2CC(Oc2ccc(C(F)(F)F)cn2)C3)c(C(F)(F)F)c1` (stereo partly drawn) [2.218] the melting point was 147 °C.
`N#Cc1sc(N2[C@@H]3CC[C@H]2CC(Oc2cc(C(F)(F)F)ccn2)C3)nc1C(F)(F)F` (stereo partly drawn) gave a melting point of 129 °C.
`Cc1nn(C)c2nccc(N3[C@@H]4CC[C@H]3CC(Oc3ccc(Cl)cc3)C4)c12` (stereo partly drawn) showed a melting point of 155 °C.
For `CC1(C)COC2(CC3CCC(C2)N3c2ncnc3sccc23)O1` (stereo not drawn) [Example 6.2], the pest or weed control at 200 ppm [1] was at least 80%, the pest or weed control at 200 ppm (Phytophthora infestans) was at least 80% and the pest or weed control at 200 ppm (Plasmopara viticola) was at least 80%. For the same compound, the pest or weed control at 200 ppm [2] was at least 80%.
In the case of `O=C(NC1C[C@H]2CC[C@@H](C1)N2c1ncnc2sccc12)c1cccnc1` (stereo partly drawn), the melting point is reported as 170 °C.
`CCc1ncnc(N2[C@@H]3CC[C@H]2CC(O)C3)c1Cl` (stereo partly drawn) showed a melting point of 104 °C.
`CCc1ncnc(N2C3CCC2CC(CC(N)=S)C3)c1Cl` (stereo not drawn) gave a melting point of 160 °C.
Work on `CCc1ncnc(N2C3CCC2CC(CC(=O)O)C3)c1Cl` (stereo not drawn) yielded a melting point of 109 °C.
Work on `Fc1ccc(C(F)(F)F)cc1CON=C1CC2CCC(C1)N2c1ncnc2sccc12` [Example 5.238] yielded a pest or weed control at 200 ppm (Pyricularia oryzae; [3]) of at least 60%, a pest or weed control at 200 ppm [1] of at least 80% and a pest or weed control at 2 ppm (Aedes aegypti) of at least 80%. The pest or weed control at 200 ppm (Plasmopara viticola) was at least 80%, the pest or weed control at 200 ppm [2] was at least 80% and the pest or weed control at 200 ppm (Plutella xylostella) was at least 80%.
With `N#Cc1sc(N2[C@@H]3CC[C@H]2CC(Oc2cccc(C(F)(F)F)n2)C3)nc1C(F)(F)F` (stereo partly drawn) the melting point was 147 °C.
In the case of `Cn1cc(C(=O)N2[C@@H]3CC[C@H]2CC(Oc2cc(C(F)(F)F)ccn2)C3)c(C(F)(F)F)c1` (stereo partly drawn), the melting point is reported as 183 °C.
In the case of `CC(=O)NC1C[C@H]2CC[C@@H](C1)N2c1ncnc2sccc12` (stereo partly drawn), the melting point is reported as 196 °C.
For `Cc1nn(C)c2nccc(N3C4CCC3CC(=NO)C4)c12`, the melting point was 201 °C.
With `Cc1nc(OC2C[C@H]3CC[C@@H](C2)N3c2ncnc3sccc23)cc(N(C)C)n1` (stereo partly drawn) [Example 1.53] the pest or weed control at 200 ppm (Phytophthora infestans) was at least 80% and the pest or weed control at 200 ppm (Plasmopara viticola) was at least 80%.
With `O=C(O)CC1CC2CCC(C1)N2c1ncnc2sccc12` (stereo not drawn) the melting point was 181 °C.
With `CCc1ncnc(N2C3CCC2CC(=NOCc2ccc(Br)cc2)C3)c1Cl` [Example 5.19] the pest or weed control at 200 ppm [1] was at least 80%, the pest or weed control at 200 ppm (Phytophthora infestans) was at least 80% and the pest or weed control at 200 ppm (Plasmopara viticola) was at least 80%. It also gave a pest or weed control at 200 ppm [2] of at least 80% and a pest or weed control at 200 ppm (Plutella xylostella) of at least 80%.
Work on `N#Cc1c(Cl)nsc1N1[C@@H]2CC[C@H]1CC(Oc1ccc(C(F)(F)F)cn1)C2` (stereo partly drawn) yielded a melting point of 157 °C.
With `CCc1ncnc(N2C3CCC2CC(=NO)C3)c1Cl` the melting point was 73 °C.
Compound `Fc1cccc(OCC=C2CC3CCC(C2)N3c2ncnc3sccc23)c1` [Example 3.38] has a pest or weed control at 200 ppm (Pyricularia oryzae; [3]) of at least 60%, a pest or weed control at 200 ppm (Pyricularia oryzae; [4]) of at least 80% and a pest or weed control at 200 ppm [1] of at least 80%. For the same compound, the pest or weed control at 2 ppm (Aedes aegypti) was at least 80%, the pest or weed control at 200 ppm (Plasmopara viticola) was at least 80% and the pest or weed control at 200 ppm (Plutella xylostella) was at least 80%.
With `COc1cc(C(C)=O)ccc1OC1C[C@H]2CC[C@@H](C1)N2c1ncnc2sccc12` (stereo partly drawn) the melting point was 171 °C.
In the case of `Cc1noc2ncnc(N3[C@@H]4CC[C@H]3CC(Oc3cc(C(F)(F)F)ccn3)C4)c12` (stereo partly drawn), the melting point is reported as 192 °C.
`Clc1ccccc1CON=C1CC2CCC(C1)N2c1ncnc2sccc12` [Example 5.141] gave a pest or weed control at 200 ppm (Pyricularia oryzae; [3]) of at least 60%, a pest or weed control at 200 ppm [1] of at least 80% and a pest or weed control at 2 ppm (Aedes aegypti) of at least 80%. The pest or weed control at 200 ppm (Phytophthora infestans) was at least 80%, the pest or weed control at 200 ppm (Plasmopara viticola) was at least 80% and the pest or weed control at 200 ppm [2] was at least 80%. The pest or weed control at 200 ppm (Plutella xylostella) was at least 80%.
Work on `CCc1ccc(CON=C2CC3CCC(C2)N3c2ncnc(CC)c2Cl)cc1` [Example 5.17] yielded a pest or weed control at 200 ppm [1] of at least 80%, a pest or weed control at 2 ppm (Aedes aegypti) of at least 80% and a pest or weed control at 200 ppm (Phytophthora infestans) of at least 80%. It also gave a pest or weed control at 200 ppm (Plasmopara viticola) of at least 80%, a pest or weed control at 200 ppm [2] of at least 80% and a pest or weed control at 200 ppm (Plutella xylostella) of at least 80%.
Compound `CCc1ncnc(N2C3CCC2CC(CC(N)=O)C3)c1Cl` (stereo not drawn) has a melting point of 101 °C.
Compound `N#Cc1sc(N2[C@@H]3CC[C@H]2CC(Oc2ccc(C(F)(F)F)cn2)C3)nc1C(F)(F)F` (stereo partly drawn) has a melting point of 135 °C.
`CCc1ncnc(N2C3CCC2CC(=CC(=O)O)C3)c1Cl` showed a melting point of 162 °C.
Compound `Cc1csc2c(N3[C@@H]4CC[C@H]3CC(Oc3cc(C(F)(F)F)ccn3)C4)ncnc12` (stereo partly drawn) has a melting point of 76 °C.
In the case of `Clc1ccc(CON=C2CC3CCC(C2)N3c2ncnc3sccc23)cc1Cl` [Example 5.169], the pest or weed control at 200 ppm (Pyricularia oryzae; [3]) is reported as at least 60%, the pest or weed control at 200 ppm (Pyricularia oryzae; [4]) is reported as at least 80% and the pest or weed control at 200 ppm [1] is reported as at least 80%. The pest or weed control at 200 ppm (Plasmopara viticola) was at least 80%, the pest or weed control at 200 ppm [2] was at least 80% and the pest or weed control at 200 ppm (Plutella xylostella) was at least 80%.
With `Cc1ccccc1CON=C1CC2CCC(C1)N2c1ncnc2sccc12` [Example 5.155] the pest or weed control at 200 ppm (Pyricularia oryzae; [3]) was at least 60%, the pest or weed control at 200 ppm [1] was at least 80% and the pest or weed control at 2 ppm (Aedes aegypti) was at least 80%. The pest or weed control at 200 ppm (Plasmopara viticola) was at least 80%, the pest or weed control at 200 ppm [2] was at least 80% and the pest or weed control at 200 ppm (Plutella xylostella) was at least 80%.
`c1ccc(C2COC3(CC4CCC(C3)N4c3ncnc4sccc34)O2)cc1` (stereo not drawn) [Example 6.7] showed a pest or weed control at 200 ppm (Pyricularia oryzae; [3]) of at least 60%, a pest or weed control at 200 ppm (Pyricularia oryzae; [4]) of at least 80% and a pest or weed control at 200 ppm [1] of at least 80%. It also gave a pest or weed control at 2 ppm (Aedes aegypti) of at least 80%, a pest or weed control at 200 ppm (Plasmopara viticola) of at least 80% and a pest or weed control at 200 ppm [2] of at least 80%.
For `FC(F)(F)c1ccc(OC2C[C@H]3CC[C@@H](C2)N3c2ccnc3cc(Cl)ccc23)nc1` (stereo partly drawn), the melting point was 107 °C.
Work on `c1ccc2nc(CON=C3CC4CCC(C3)N4c3ncnc4sccc34)ccc2c1` [Example 5.193] yielded a pest or weed control at 200 ppm [1] of at least 80%, a pest or weed control at 2 ppm (Aedes aegypti) of at least 80% and a pest or weed control at 200 ppm (Plasmopara viticola) of at least 80%. The pest or weed control at 200 ppm [2] was at least 80%.
For `N#Cc1c(Cl)nsc1N1[C@@H]2CC[C@H]1CC(Oc1cccc(C(F)(F)F)n1)C2` (stereo partly drawn), the melting point was 158 °C.
`Clc1ccc(-c2csc(CC3CC4CCC(C3)N4c3ncnc4sccc34)n2)cc1` (stereo not drawn) [Example 7.19] showed a pest or weed control at 2 ppm (Aedes aegypti) of at least 80%, a pest or weed control at 200 ppm (Plasmopara viticola) of at least 80% and a pest or weed control at 200 ppm (Plutella xylostella) of at least 80%.
`Cn1cc(C(=O)N2[C@@H]3CC[C@H]2CC(Oc2ccc(C(F)(F)F)cn2)C3)c(C(F)(F)F)c1` (stereo partly drawn) [2.223] gave a melting point of 153 °C.
Work on `N#Cc1ccccc1CON=C1CC2CCC(C1)N2c1ncnc2sccc12` [Example 5.191] yielded a pest or weed control at 200 ppm [1] of at least 80%, a pest or weed control at 2 ppm (Aedes aegypti) of at least 80% and a pest or weed control at 200 ppm (Plasmopara viticola) of at least 80%. For the same compound, the pest or weed control at 200 ppm [2] was at least 80%.
With `FC(F)(F)c1csc(CC2CC3CCC(C2)N3c2ncnc3sccc23)n1` (stereo not drawn) [Example 7.18] the pest or weed control at 200 ppm (Pyricularia oryzae; [3]) was at least 60%, the pest or weed control at 200 ppm (Pyricularia oryzae; [4]) was at least 80% and the pest or weed control at 200 ppm [1] was at least 80%. The pest or weed control at 2 ppm (Aedes aegypti) was at least 80% and the pest or weed control at 200 ppm (Plasmopara viticola) was at least 80%.
With `Clc1ccc(OC2C[C@H]3CC[C@@H](C2)N3c2ncnc3sccc23)cc1` (stereo partly drawn) the melting point was 184 °C.
Work on `Clc1ccc(CON=C2CC3CCC(C2)N3c2ncnc3sccc23)cc1` [Example 5.142] yielded a pest or weed control at 200 ppm (Pyricularia oryzae; [3]) of at least 60%, a pest or weed control at 200 ppm [1] of at least 80% and a pest or weed control at 2 ppm (Aedes aegypti) of at least 80%. For the same compound, the pest or weed control at 200 ppm (Plasmopara viticola) was at least 80%, the pest or weed control at 200 ppm [2] was at least 80% and the pest or weed control at 200 ppm (Plutella xylostella) was at least 80%.
